Test results from publication PMC5927452, “Gadoxetic acid–enhanced magnetic resonance imaging to predict paritaprevir-induced hyperbilirubinemia during treatment of hepatitis C” (PLoS ONE, 2018).

Legend:
[1] = Plasma paritaprevir concentration 7 d after start of OBV/PTV/r treatment (LC-MS/MS); type: in vivo, human; conditions: OBV/PTV/r 25/150/100 mg orally once daily; for Log10 Ctrough: fasting steady-state plasma trough, day 7, LC-MS/MS, mean ± SD; for AUC (AUC0-6 h): plasma, day 7, 0-6 h after dosing with breakfast, trapezoidal rule
Protocol: This was a single-center, exploratory, prospective study. The study was approved by both the ethical review board of Juntendo University Faculty of Medicine (Jundai-Irin No-2016135) and the Ethics Committee for Human Genome/Gene Analysis Research at Kanazawa University Graduate School of Medical Sciences (No. 2016–004, serial No. 432) and was carried out in accordance with the 1964 Declaration of Helsinki and its later amendments. The study was also registered with UMIN clinical trials as UMIN000022587. Written informed consent was obtained from all patients before enrollment. The study enrolled adult patients with HCV genotype 1b chronic hepatitis or compensated liver cirrhosis using OBV/PTV/r (VIEKIRAX®; AbbVie, Inc., North Chicago, Illinois, USA) at Juntendo University Nerima Hospital. Analysis of resistance-associated variations of the NS5A Y93H substitutions in the baseline sequence was performed in a commercial laboratory (SRL, Inc., Tokyo, Japan), and the patients with the mutant type of NS5A Y93H were excluded. Patients with renal dysfunction (estimated glomerular filtration rate < 40 ml/min/1.73 m^2) were excluded. A precaution in OBV/PTV/r treatment is coadministration of statin medications. Patients taking simvastatin and atorvastatin were excluded; no other patients were taking any other type of statin. Consequently, this study involved 27 consecutive Japanese patients (8 males and 19 females), with ages ranging from 30 to 83 years, treated between June 2016 and July 2017. Twenty patients with chronic hepatitis and seven patients with liver cirrhosis were included. All patients were treated with OBV/PTV/r, at a dose of 25/150/100 mg, administered orally once daily.
Fasting steady-state plasma trough concentrations (Ctrough) of paritaprevir were determined from blood samples obtained 7 d after the start of treatment. The patients were given the same breakfast of 338 kcal, with 15% of calories from protein, 60% from fat, and 25% from carbohydrates. After the meal, the patients took the drugs orally. Paritaprevir concentrations at 2, 4, and 6 h after dosing were determined. Blood samples were centrifuged within 30 min at 1,500 rpm for 10 min at 4°C, and plasma concentrations of paritaprevir were determined using liquid chromatography–tandem mass spectrometry, as described. The area under the plasma concentration curve from 0 to 6 h (AUC0–6 h) of paritaprevir after dosing was calculated using the trapezoidal rule.

[2] = regimen of paritaprevir/ritonavir, ombitasvir, and dasabuvir with or without ribavirin; mainly indirect bilirubin, without elevations in liver enzymes; cited from earlier work
Protocol: The regimen of ombitasvir, paritaprevir, and ritonavir (OBV/PTV/r) without or with ribavirin has been available in Japan since 2015 and 2016, respectively. Ritonavir is included for its booster effect on paritaprevir by cytochrome P450 3A inhibitor. Paritaprevir, a nonstructural (NS)3/4A protease inhibitor, is mainly eliminated via hepatobiliary excretion. It is carried into the hepatocyte by hepatic transporters including organic anion–transporting polypeptides (OATP)1B1 and OATP1B3, located at the sinusoidal membranes of hepatocytes. These transporters also carry unconjugated bili ...

[3] = patients with hyperbilirubinemia (N = 7)
[4] = patients without hyperbilirubinemia (N = 20)

In the case of Cc1cnc(C(=O)N[C@H]2CCCCC/C=C\[C@@H]3C[C@@]3(C(=O)NS(=O)(=O)C3CC3)NC(=O)[C@@H]3C[C@@H](Oc4nc5ccccc5c5ccccc45)CN3C2=O)cn1 [paritaprevir], the “Log10 Ctrough” value [1, 3] is reported as 2.768 ± 0.747 ng/ml, the “AUC (AUC0-6 h)” value [1, 3] is reported as 37.224 ± 21.015 µg·h/mL and the “Log10 Ctrough” value [1, 4] is reported as 2.169 ± 0.484 ng/ml. For the same molecule, the “AUC (AUC0-6 h)” value [1, 4] was 31.441 ± 21.727 µg·h/mL and the “patients with elevation in total bilirubin (≥ 2.25 mg/dl)” value [2] was 23%.
